The values below come from ChEMBL document CHEMBL3108737, “HIV Integrase Inhibitors for Treatment of HIV Infections and AIDS” (ACS Med Chem Lett, 2014).

Molecules are shown by their SMILES.

Human immunodeficiency virus type 1 integrase (Human immunodeficiency virus 1), sequence (Q7ZJM1 as listed by the source): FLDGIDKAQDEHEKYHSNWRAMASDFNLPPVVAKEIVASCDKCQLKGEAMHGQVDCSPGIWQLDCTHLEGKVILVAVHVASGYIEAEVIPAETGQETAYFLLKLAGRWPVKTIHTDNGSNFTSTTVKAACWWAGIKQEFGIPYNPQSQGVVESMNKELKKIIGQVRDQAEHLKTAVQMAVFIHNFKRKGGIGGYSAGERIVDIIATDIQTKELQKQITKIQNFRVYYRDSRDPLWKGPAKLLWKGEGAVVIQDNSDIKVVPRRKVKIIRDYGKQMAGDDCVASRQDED

The experiment concerns the target Human immunodeficiency virus type 1 integrase (Human immunodeficiency virus 1) (UniProt Q7ZJM1). Nature of the experiment: Inhibition of HIV1 integrase-mediated viral replication in human MT4 cells after 72 hrs in presence of 10% normal human serum. In kind it is cell-based.
As for `CC[C@H]1COCC2c3nc(c(O)c(=O)n31)C(=O)NCc1cc(C)c(F)cc1OCC/C=C/C(=O)N2C` (stereo partly drawn), the IC95 is 6 nM. The result for `CC[C@H]1COC[C@@H]2c3nc(c(O)c(=O)n31)C(=O)NCc1ccc(F)cc1OCCCCC(=O)N2C` reads 9 nM; that for `CN1CCCc2cc(F)ccc2CNC(=O)c2nc3n(c(=O)c2O)CCCCC3N(C)C(=O)C1=O` (stereo not drawn), 2260 nM.
